Measured values reported in ChEMBL document CHEMBL3885861, “Open TG-GATES”.

Species: Rattus norvegicus
Test: Open TG-GATES - Regimen: Daily Repeat
Type: toxicity, organism-based, Sprague-Dawley
Parameters: regimen Daily Repeat, gender Male, age 6 weeks
Conditions: in vivo, sc, 0.2 mg/kg, route subcutaneous injection, dose 200 ug/Kg, dose level High; for APTT / Bas / Eos / Fbg / Hb / Ht / Lym / MCH / MCHC / MCV / Mono / Neu / PT / Plat / RBC / Ret / WBC: tissue Blood; for KIDNEY_L / KIDNEY_R / KIDNEY_TOTAL: tissue Kidney; for LIVER: tissue Liver; for A/G / ALP / ALT / AST / BUN / CRE / Ca / Cl / DBIL / GLC / IP / K / LDH / Na / PL / RALB / TBIL / TC / TG / TP / gamma-GTP: tissue Plasma

Compound: CC(=O)O.N=C(N)NCCC[C@@H](NC(=O)[C@@H]1CCCN1C(=O)[C@@H]1CSSCCC(=O)N[C@@H](Cc2ccc(O)cc2)C(=O)N[C@@H](Cc2ccccc2)C(=O)N[C@@H](CCC(N)=O)C(=O)N[C@@H](CC(N)=O)C(=O)N1)C(=O)NCC(N)=O [DESMOPRESSIN ACETATE]
- TERMINAL_BW (72 h, time 3 day): 235.3 g
- APTT (72 h, time 3 day): 17.2 s
- Bas (72 h, time 3 day): 0%
- Eos (72 h, time 3 day): 1%
- Fbg (72 h, time 3 day): 258 mg/dL
- Hb (72 h, time 3 day): 13.4 g/dL
- Ht (72 h, time 3 day): 40.8%
- Lym (72 h, time 3 day): 67.8%
- MCH (72 h, time 3 day): 21.1 pg
- MCHC (72 h, time 3 day): 32.8%
- MCV (72 h, time 3 day): 64.3 fL
- Mono (72 h, time 3 day): 11.8%
- Neu (72 h, time 3 day): 18.8%
- PT (72 h, time 3 day): 12.2 s
- Plat (72 h, time 3 day): 126.8 x10_4/uL
- RBC (72 h, time 3 day): 635.6 x10_4/ul
- Ret (72 h, time 3 day): 6.8%
- WBC (72 h, time 3 day): 73.8 x10_2/uL
- KIDNEY_L (72 h, time 3 day): 1.1 g
- KIDNEY_R (72 h, time 3 day): 1.1 g
- KIDNEY_TOTAL (72 h, time 3 day): 2.2 g
- LIVER (72 h, time 3 day): 10 g
- A/G (72 h, time 3 day): 2
- ALP (72 h, time 3 day): 1277.4 IU/L
- ALT (72 h, time 3 day): 32 IU/L
- AST (72 h, time 3 day): 69.2 IU/L
- BUN (72 h, time 3 day): 20 mg/dL
- CRE (72 h, time 3 day): 0.4 mg/dL
- Ca (72 h, time 3 day): 11.3 mg/dL
- Cl (72 h, time 3 day): 102.8 meq/L
- DBIL (72 h, time 3 day): 0.012 mg/dL
- GLC (72 h, time 3 day): 196.4 mg/dL
- IP (72 h, time 3 day): 7.6 mg/dL
- K (72 h, time 3 day): 5.5 meq/L
- LDH (72 h, time 3 day): 179.6 IU/L
- Na (72 h, time 3 day): 136 meq/L
- PL (72 h, time 3 day): 138.6 mg/dL
- RALB (72 h, time 3 day): 3.7 g/dL
- TBIL (72 h, time 3 day): 0.042 mg/dL
- TC (72 h, time 3 day): 75.6 mg/dL
- TG (72 h, time 3 day): 85.2 mg/dL
- TP (72 h, time 3 day): 5.6 g/dL
- gamma-GTP (72 h, time 3 day): 1 IU/L
- TERMINAL_BW ([…], time 7 day): 258.6 g
- TERMINAL_BW ([…], time 14 day): 323.7 g
- TERMINAL_BW ([…], time 28 day): 400.9 g
- APTT ([…], time 7 day): 18.6 s
- Bas ([…], time 7 day): 0%
- Eos ([…], time 7 day): 1%
- Fbg ([…], time 7 day): 251.8 mg/dL
- Hb ([…], time 7 day): 13.6 g/dL
- Ht ([…], time 7 day): 41.4%
- Lym ([…], time 7 day): 75%
- MCH ([…], time 7 day): 20.7 pg
- MCHC ([…], time 7 day): 32.9%
- MCV ([…], time 7 day): 63.1 fL
- Mono ([…], time 7 day): 8.2%
- Neu ([…], time 7 day): 16.2%
- PT ([…], time 7 day): 13.4 s
- Plat ([…], time 7 day): 122 x10_4/uL
- RBC ([…], time 7 day): 656.4 x10_4/ul
- Ret ([…], time 7 day): 7.3%
- WBC ([…], time 7 day): 112.4 x10_2/uL
- APTT ([…], time 14 day): 17 s
- Bas ([…], time 14 day): 0%
- Eos ([…], time 14 day): 1.2%
- Fbg ([…], time 14 day): 244.8 mg/dL
- Hb ([…], time 14 day): 13.8 g/dL
- Ht ([…], time 14 day): 42.7%
- Lym ([…], time 14 day): 73.2%
- MCH ([…], time 14 day): 20.5 pg
- MCHC ([…], time 14 day): 32.4%
- MCV ([…], time 14 day): 63.2 fL
- Mono ([…], time 14 day): 8.2%
- Neu ([…], time 14 day): 17.4%
- PT ([…], time 14 day): 11.9 s
- Plat ([…], time 14 day): 110.6 x10_4/uL
- RBC ([…], time 14 day): 675.8 x10_4/ul
- Ret ([…], time 14 day): 6.1%
- WBC ([…], time 14 day): 104.8 x10_2/uL
- APTT ([…], time 28 day): 18.9 s
- Bas ([…], time 28 day): 0%
- Eos ([…], time 28 day): 1%
- Fbg ([…], time 28 day): 260.8 mg/dL
- Hb ([…], time 28 day): 15 g/dL
- Ht ([…], time 28 day): 45.6%
- Lym ([…], time 28 day): 80.4%
- MCH ([…], time 28 day): 18.8 pg
- MCHC ([…], time 28 day): 32.8%
- MCV ([…], time 28 day): 57.4 fL
- Mono ([…], time 28 day): 6.4%
- Neu ([…], time 28 day): 11.8%
- PT ([…], time 28 day): 12.2 s
- Plat ([…], time 28 day): 112.2 x10_4/uL
- RBC ([…], time 28 day): 795.2 x10_4/ul
- Ret ([…], time 28 day): 3.1%
- WBC ([…], time 28 day): 95 x10_2/uL
- KIDNEY_L ([…], time 7 day): 1.3 g
- KIDNEY_R ([…], time 7 day): 1.3 g
- KIDNEY_TOTAL ([…], time 7 day): 2.6 g
- KIDNEY_L ([…], time 14 day): 1.5 g
- KIDNEY_R ([…], time 14 day): 1.5 g
- KIDNEY_TOTAL ([…], time 14 day): 3 g
- KIDNEY_L ([…], time 28 day): 1.8 g
- KIDNEY_R ([…], time 28 day): 1.8 g
- KIDNEY_TOTAL ([…], time 28 day): 3.6 g
- LIVER ([…], time 7 day): 11.3 g
- LIVER ([…], time 14 day): 13.6 g
- LIVER ([…], time 28 day): 14.7 g
- A/G ([…], time 7 day): 2
- ALP ([…], time 7 day): 1056 IU/L
- ALT ([…], time 7 day): 30.2 IU/L
- AST ([…], time 7 day): 67.6 IU/L
- BUN ([…], time 7 day): 21.2 mg/dL
- CRE ([…], time 7 day): 0.4 mg/dL
- Ca ([…], time 7 day): 13.2 mg/dL
- Cl ([…], time 7 day): 98.8 meq/L
- DBIL ([…], time 7 day): 0.014 mg/dL
- GLC ([…], time 7 day): 200.8 mg/dL
- IP ([…], time 7 day): 7.4 mg/dL
- K ([…], time 7 day): 4.8 meq/L
- LDH ([…], time 7 day): 169.6 IU/L
- Na ([…], time 7 day): 129.8 meq/L
- PL ([…], time 7 day): 130 mg/dL
- RALB ([…], time 7 day): 3.6 g/dL
- TBIL ([…], time 7 day): 0.042 mg/dL
- TC ([…], time 7 day): 71.4 mg/dL
- TG ([…], time 7 day): 90.2 mg/dL
- TP ([…], time 7 day): 5.5 g/dL
- gamma-GTP ([…], time 7 day): 1 IU/L
- A/G ([…], time 14 day): 1.9
- ALP ([…], time 14 day): 1196.4 IU/L
- ALT ([…], time 14 day): 31.8 IU/L
- AST ([…], time 14 day): 69.2 IU/L
- BUN ([…], time 14 day): 20.8 mg/dL
- CRE ([…], time 14 day): 0.4 mg/dL
- Ca ([…], time 14 day): 10.7 mg/dL
- Cl ([…], time 14 day): 105.6 meq/L
- DBIL ([…], time 14 day): 0.014 mg/dL
- GLC ([…], time 14 day): 207 mg/dL
- IP ([…], time 14 day): 7.5 mg/dL
- K ([…], time 14 day): 5 meq/L
- LDH ([…], time 14 day): 125.6 IU/L
- Na ([…], time 14 day): 138.6 meq/L
- PL ([…], time 14 day): 150.8 mg/dL
- RALB ([…], time 14 day): 3.7 g/dL
- TBIL ([…], time 14 day): 0.038 mg/dL
- TC ([…], time 14 day): 75.6 mg/dL
- TG ([…], time 14 day): 119.8 mg/dL
- TP ([…], time 14 day): 5.7 g/dL
- gamma-GTP ([…], time 14 day): 1 IU/L
- A/G ([…], time 28 day): 1.6
- ALP ([…], time 28 day): 872.6 IU/L
- ALT ([…], time 28 day): 28 IU/L
- AST ([…], time 28 day): 62.8 IU/L
- BUN ([…], time 28 day): 22 mg/dL
- CRE ([…], time 28 day): 0.4 mg/dL
- Ca ([…], time 28 day): 9.2 mg/dL
- Cl ([…], time 28 day): 105.6 meq/L
- DBIL ([…], time 28 day): 0.01 mg/dL
- GLC ([…], time 28 day): 182.8 mg/dL
- IP ([…], time 28 day): 6.5 mg/dL
- K ([…], time 28 day): 4.8 meq/L
- LDH ([…], time 28 day): 160 IU/L
- Na ([…], time 28 day): 138.4 meq/L
- PL ([…], time 28 day): 153.2 mg/dL
- RALB ([…], time 28 day): 3.8 g/dL
- TBIL ([…], time 28 day): 0.046 mg/dL
- TC ([…], time 28 day): 88.4 mg/dL
- TG ([…], time 28 day): 117.6 mg/dL
- TP ([…], time 28 day): 6.1 g/dL
- gamma-GTP ([…], time 28 day): 0.6 IU/L
